Literature values in US20230170070A1, “SYSTEM AND METHOD FOR PROVIDING FERTILITY ENHANCING DIETARY RECOMMENDATIONS IN INDIVIDUALS WITH SPERM CONDITIONS” (SOCIETE DES PRODUITS NESTLE S.A., priority 2020, published 2023).
Like-named read-outs stand apart in the source and are kept apart here.

Assays:
sperm cells = conditions: excessive alcohol
oxidative stress status = conditions: exogenous supplementation; both in vitro and in vivo
semen quality [1] = conditions: for semen quality: In RCTs
[2] = for pregnancy rate in the female partner: In RCTs
semen quality [3] = conditions: from cold water fish
[4] = among men with astheno- or oligoasthenozoospermia

Q: With `CCO` [Alcohol] as the compound, how does the hormones in men (sperm cells) read?
A: decreases hormones in

Q: What about the sperm cells (sperm cells) of the same compound?
A: men and degenerates

Q: With `O=C(O)CCCCC1CCSS1` (stereo not drawn) [Alpha-lipoic acid (ALA), Alpha-lipoic acid] as the compound, how does the oxidative stress status (oxidative stress status) read?
A: improve oxidative stress

Q: Which semena quality parameters (semen quality [1]; among oligoasthenoteratozoospermic men) does the source give for `COc1cc(/C=C/C(=O)CC(=O)/C=C/c2ccc(O)c(OC)c2)ccc1O` [Curcumin] here?
A: Curcumin improved

Q: With `N[C@@H](CCC(=O)N[C@@H](CS)C(=O)NCC(=O)O)C(=O)O` [Glutathione] as the compound, how does the sperm concentration (semen quality [1]; glutathione supplementation) read?
A: Improves sperm

Q: What about the sperm morphology (semen quality [1]; glutathione supplementation) of the same compound?
A: Improves sperm

Q: And the sperm motility (semen quality [1]; glutathione supplementation)?
A: Improves sperm

Q: Which sperm concentration (semen quality [1]; [4]) does the source give for `CC(=O)O[C@H](CC(=O)[O-])C[N+](C)(C)C` [L-acetyl carnitine (LAC), L-acetyl carnitine] here?
A: can significantly improve

Q: What about the total sperm counts (semen quality [1]; [4]) of the same compound?
A: can significantly improve

Q: For `C[N+](C)(C)C[C@H](O)CC(=O)[O-]` [L-carnitine], which sperm concentration (semen quality [1]; [4]) is on record?
A: can significantly improve

Q: And the total sperm counts (semen quality [1]; [4])?
A: can significantly improve

Q: Which sperm parameters (semen quality [1]; in vivo) does the source give for `CC(C)=CCC/C(C)=C/C=C/C(C)=C/C=C/C(C)=C/C=C/C=C(C)/C=C/C=C(C)/C=C/C=C(\C)CCC=C(C)C` [Lycopene] here?
A: Improve sperm

Q: For `O[C@H]1[C@H](O)[C@@H](O)[C@H](O)[C@@H](O)[C@H]1O` [Myoinositol], which progressive motility (semen quality [1]; myoinositol supplementation) is on record?
A: increase in sperm

Q: And the sperm concentration (semen quality [1]; myoinositol supplementation)?
A: increase in sperm

Q: What about the sperm count (semen quality [1]; myoinositol supplementation) of the same compound?
A: increase in sperm

Q: For `[Se]` [Selenium], which total sperm motility (semen quality [1]; compared with placebo) is on record?
A: increase in total sperm

Q: For `O=C1O[C@H]([C@@H](O)CO)C(O)=C1O` [Vitamin C], which progressive sperm motility (semen quality [1]; in vivo) is on record?
A: increase in progressive

Q: Which live birth rate ([2]; among oligozoospermic men, high-dose supplementation compared to placebo) does the source give for `C=C1CC[C@H](O)C/C1=C/C=C1\CCC[C@]2(C)[C@@H]([C@H](C)CCCC(C)C)CC[C@@H]12` [Vitamin D] here?
A: uptake. A higher live

Q: Which results are given for `[Zn]` [Zinc]?
A: pregnancy rate in the female partner [2]: shown to increase; semen quality (semen quality [1]): shown to increase

Q: What does the source list for Vitamin E?
A: pregnancy rate in the female partner [2]: been shown to increase; semen quality (semen quality [1]): been shown to increase

Q: Which “non-genomic effects on sperm capacitation and acrosome reaction” value (sperm) does the source give for isoflavones here?
A: genomic negative

Q: For omega-3 fatty acids, which “influence on sperm morphology” value (semen quality [3]) is on record?
A: positive influence
